Like-named read-outs stand apart in the source and are kept apart here.
Key:
[1] = target: Human acetylcholinesterase (AChE; EC 3.1.1.7) (Homo sapiens, UniProt P22303); experiment: modified Ellman assay with purified AChE, Lineweaver-Burk kinetics; format: biochemical
[2] = substrate: CC(=O)SCC[N+](C)(C)C; experiment: Km from modified Ellman assay, Lineweaver-Burk (enzyme only); format: biochemical, Homo sapiens; details: active site (substrate)
Description: Km from modified Ellman assay, Lineweaver-Burk (enzyme only) on Human acetylcholinesterase (AChE; EC 3.1.1.7) | The reaction system contained acetylthiocholine (ACth) as the substrate

NCCS(=O)(=O)O [TA, Taurine] was tested, and the Ki ([1]; read-out: Taurine 0.15 mM) was 274 ± 5.94 µM.

In the case of CN(CC(=O)O)C(=N)N [CR, Creatine], the Ki ([1]; read-out: Creatine 0.15 mM) is reported as 199 ± 5.21 µM.

B1: Human acetylcholinesterase (AChE; EC 3.1.1.7) (Homo sapiens) (protein)
chain: EGREDAELLVTVRGGRLRGIRLKTPGGPVSAFLGIPFAEPPMGPRRFLPPEPKQPWSGVVDATTFQSVCYQYVDTLYPGFEGTEMWNPNRELSEDCLYLNVWTPYPRPTSPTPVLVWIYGGGFYSGASSLDVYDGRFLVQAERTVLVSMNYRVGAFGFLALPGSREAPGNVGLLDQRLALQWVQENVAAFGGDPTSVTLFGESAGAASVGMHLLSPPSRGLFHRAVLQSGAPNGPWATVGMGEARRRATQLAHLVGCPPGGTGGNDTELVACLRTRPAQVLVNHEWHVLPQESVFRFSFVPVVDGDFLSDTPEALINAGDFHGLQVLVGVVKDEGSYFLVYGAPGFSKDNESLISRAEFLAGVRVGVPQVSDLAAEAVVLHYTDWLHPEDPARLREALSDVVGDHNVVCPVAQLAGRLAAQGARVYAYVFEHRASTLSWPLWMGVPHGYEIEFIFGIPLDPSRNYTAEEKIFAQRLMRYWANFARTGDPNEPRDPKAPQWPPYTAGAQQYVSLDLRPLEVRRGLRAQACAFWNRFLPKLLSATDTLDEAERQWKAEFHRWSSYMVHWKNQFDHYSKQDRCSDL
B1 was tested, and the Km [2] was 1.73 ± 0.0147 µM and the Vmax [2] was 131 µM/min.

From PMC12691779, “Creatine and Taurine as Novel Competitive Inhibitors of Acetylcholinesterase: A Biochemical Basis for Nutritional Modulation of Brain Function” (International Journal of Molecular Sciences, 2025)
